Laboratory results from the supplement of paper PMC11451515.

What was measured:
Settings in all cases: 48 h
[1] = tested on: NOMO1; assay: AUC of viability dose-response curve (% viability x log10 dose units); higher = less sensitive
Method in brief: (§1)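 Leukemia cells adapted to each medium were seeded at 500 or 1000 cells/well in 1536-well plates and dosed with library compounds in DMSO at 11 threefold doses from 47 μM to 0.79 nM for 48 h at 37°C. CellTiter-Glo One luminescence was normalised per plate to DMSO and cell-free wells, then fitted with a four-parameter log-logistic model over log10 doses. Area under the curve was taken from this fit by the trapezoidal rule, with curves above full viability scaled and curves failing quality control removed.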

[2] = tested on: P12-Ichikawa; assay: as above
Method in brief: as §1

[3] = tested on: SEM cells; assay: as above
Method in brief: as §1

[4] = tested on: NOMO1; assay: cell viability relative to DMSO control; higher = less cytotoxic
Method in brief: (§2)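 NOMO1 or SEM (500 cells/well) or P12-Ichikawa (1000 cells/well) leukemia cells were adapted for at least four passages in each medium. They were seeded in 1536-well plates (5 μl) and pin-dosed with library compounds in DMSO over an 11-point threefold series, 47 μM to 0.79 nM. CellTiter-Glo One luminescence was read after 48 h at 37°C. Viability is the per-plate percentage relative to DMSO wells, with cell-free wells as background.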

[5] = tested on: SEM cells; assay: as above
Method in brief: as §2

[6] = tested on: P12-Ichikawa; assay: as above
Method in brief: as §2

Nc1cccc([S+](=O)([O-])N2CCCN([S+](=O)([O-])c3ccc4c(c3)OCCO4)CC2)c1
AUC of viability dose-response curve
Settings	[1]	[2]	[3]
HPLM + 10% dialyzed FBS	445	444	460
RPMI 5 mM glucose + 10% FBS	464	464	434
RPMI 5 mM glucose + 10% dialyzed FBS	447	460	437

c1ccc(CNc2nc(NCc3ccccc3)c3ccccc3n2)cc1
cell viability [%], HPLM + 10% dialyzed FBS
Settings	[4]	[5]
0.000781 µM	92.7	104
0.00234 µM	114	116
0.00702 µM	144	117
0.0211 µM	121	125
0.0632 µM	138	130
0.19 µM	134	132
0.569 µM	148	136
1.71 µM	158	127
5.12 µM	132	136
15.4 µM	118	133
46.1 µM	5.97	32.5

AUC of viability dose-response curve
Settings	[1]	[2]	[3]
HPLM + 10% dialyzed FBS	450	473	440
RPMI 5 mM glucose + 10% FBS	466	465	462
RPMI 5 mM glucose + 10% dialyzed FBS	463	465	470

CCN(CC)CCNC(=O)c1c(C)[nH]c(/C=C2\C(=O)Nc3ccc(F)cc32)c1C
cell viability [%]
Settings	[4]	[5]	[6]
HPLM + 10% dialyzed FBS, 0.000781 µM	79.5	48	106
HPLM + 10% dialyzed FBS, 0.00234 µM	103	47.3	102
HPLM + 10% dialyzed FBS, 0.00702 µM	109	43.4	106
HPLM + 10% dialyzed FBS, 0.0211 µM	124	53	103
HPLM + 10% dialyzed FBS, 0.0632 µM	87.1	41.8	104
HPLM + 10% dialyzed FBS, 0.19 µM	23.4	13	36.8
HPLM + 10% dialyzed FBS, 0.569 µM	30.7	9.03	21.5
HPLM + 10% dialyzed FBS, 1.71 µM	23	6.26	6.34
HPLM + 10% dialyzed FBS, 5.12 µM	29.1	5.73	9.77
HPLM + 10% dialyzed FBS, 15.4 µM	6.81	4.36	3.45
HPLM + 10% dialyzed FBS, 46.1 µM	4.98	4.22	2.39
RPMI 5 mM glucose + 10% FBS, 0.000781 µM	106	72.7	106
RPMI 5 mM glucose + 10% FBS, 0.00234 µM	103	66.3	105
RPMI 5 mM glucose + 10% FBS, 0.00702 µM	109	58.1	114
RPMI 5 mM glucose + 10% FBS, 0.0211 µM	113	57	103
RPMI 5 mM glucose + 10% FBS, 0.0632 µM	115	34.1	118
RPMI 5 mM glucose + 10% FBS, 0.19 µM	45.5	10.6	58.8
RPMI 5 mM glucose + 10% FBS, 0.569 µM	16.1	9.65	34.1
RPMI 5 mM glucose + 10% FBS, 1.71 µM	21.9	6.37	12.6
RPMI 5 mM glucose + 10% FBS, 5.12 µM	24.7	5.9	14.6
RPMI 5 mM glucose + 10% FBS, 15.4 µM	11.5	3.85	4.54
RPMI 5 mM glucose + 10% FBS, 46.1 µM	3.98	4.31	2.44
RPMI 5 mM glucose + 10% dialyzed FBS, 0.000781 µM	97.7	52.8	114
RPMI 5 mM glucose + 10% dialyzed FBS, 0.00234 µM	110	42.7	113
RPMI 5 mM glucose + 10% dialyzed FBS, 0.00702 µM	100	42.2	109
RPMI 5 mM glucose + 10% dialyzed FBS, 0.0211 µM	117	44.5	112
RPMI 5 mM glucose + 10% dialyzed FBS, 0.0632 µM	117	27.6	113
RPMI 5 mM glucose + 10% dialyzed FBS, 0.19 µM	43.1	9.68	51.3
RPMI 5 mM glucose + 10% dialyzed FBS, 0.569 µM	22.3	9.05	31
RPMI 5 mM glucose + 10% dialyzed FBS, 1.71 µM	25.9	6.13	12.2
RPMI 5 mM glucose + 10% dialyzed FBS, 5.12 µM	31.8	5.9	14.3
RPMI 5 mM glucose + 10% dialyzed FBS, 15.4 µM	11.3	3.85	4.09
RPMI 5 mM glucose + 10% dialyzed FBS, 46.1 µM	3.82	3.99	2.75

AUC of viability dose-response curve
Settings	HPLM + 10% dialyzed FBS	RPMI 5 mM glucose + 10% FBS	RPMI 5 mM glucose + 10% dialyzed FBS
[1]	257	265	271
[2]	248	266	257

CN1CCc2c(n(Cc3ccc(C(=O)NO)cc3)c3ccccc23)C1
AUC of viability dose-response curve
Settings	[1]	[2]	[3]
HPLM + 10% dialyzed FBS	452	448	443
RPMI 5 mM glucose + 10% FBS	440	453	442
RPMI 5 mM glucose + 10% dialyzed FBS	449	451	452

CC(=O)OCC(=O)[C@@]1(O)CC[C@H]2[C@@H]3CCC/4=C/C(=O)CC[C@]4(C)[C@H]3C(=O)C[C@]12C
[5], HPLM + 10% dialyzed FBS
Settings	cell viability [%]
0.000781 µM	106
0.00234 µM	109
0.00702 µM	112
0.0211 µM	101
0.0632 µM	107
0.19 µM	117
0.569 µM	84.5
1.71 µM	51.8
5.12 µM	112
15.4 µM	111
46.1 µM	118

AUC of viability dose-response curve
Settings	[1]	[2]	[3]
HPLM + 10% dialyzed FBS	464	460	466
RPMI 5 mM glucose + 10% FBS	476	470	466
RPMI 5 mM glucose + 10% dialyzed FBS	459	430	445

O=C1N(c2ccccc2)c2ccccc2C1(Cc1ccncc1)Cc1ccncc1
[5], RPMI 5 mM glucose + 10% FBS
Settings	cell viability [%]
0.000781 µM	84.9
0.00234 µM	115
0.00702 µM	133
0.0211 µM	148
0.0632 µM	129
0.19 µM	43.9
0.569 µM	137
1.71 µM	94.4
5.12 µM	88.3
15.4 µM	108
46.1 µM	152

AUC of viability dose-response curve
Settings	HPLM + 10% dialyzed FBS	RPMI 5 mM glucose + 10% FBS	RPMI 5 mM glucose + 10% dialyzed FBS
[1]	462	473	465
[2]	446	437	424

COc1cc(C)c(/C=C/C(C)=C/C=C/C(C)=C/C(=O)O)c(C)c1C
AUC of viability dose-response curve
Settings	[1]	[2]	[3]
HPLM + 10% dialyzed FBS	442	458	450
RPMI 5 mM glucose + 10% FBS	441	441	426
RPMI 5 mM glucose + 10% dialyzed FBS	420	455	450

Cc1cc(NC(=O)Nc2ccc(N(C)C)cc2)c2cc(F)cc(F)c2n1
AUC of viability dose-response curve
Settings	[1]	[2]	[3]
HPLM + 10% dialyzed FBS	457	475	465
RPMI 5 mM glucose + 10% FBS	466	461	468
RPMI 5 mM glucose + 10% dialyzed FBS	440	454	448
